This assay is described as follows: ABTS radical cation assay. Format: biochemical. The note with it: RoxP peptides, ABTS assay (Example 12), increased with concentration. As for the experimental part:
FIG. 4: RoxP antioxidant activity under adverse conditions. The ability of RoxP to reduce ABTS radical cations, denoted by a decrease in absorbance at 734 nm, was tested in multiple settings. Different concentrations of recombinant RoxP (rRoxP) (0.2-3.2 μM) in sodium phosphate buffer (20 mM, pH 7.4) (A), rRoxP (2.7 μM) incubated with salt solutions (B), pre-heated rRoxP (2.7 μM) incubated for 20 min in temperatures ranging from RT to 98° C. and allowed to cool down to ambient temperature prior to activity measurements (C), or rRoxP (2 μM) stored at room temperature for up to 2 weeks (D) were added to a solution of pre-formed ABTS radicals and the absorbance recorded after 30 sec.
The reduction of pre-formed ABTS radical cations in the presence of RoxP was analysed using a spectrophotometric assay previously described by Re et al. (1999 Free Radic Biol Med 26:1231-1237). 2,2′-azinobis(3-ethylbenzothiazoline-6-sulfonic acid) diammonium salt (ABTS) (Sigma-Aldrich) was initially dissolved in ddH2O to a concentration of […]. Potassium persulfate (Merck KGaA, Darmstadt, Germany) was subsequently added to a final concentration of 2.45 mM and the resulting solution kept dark and incubated overnight at RT. Formed ABTS radicals were diluted with PBS (pH 7.4) until reaching an absorbance of approximately 0.7 at 734 nm. Antioxidants (1.7 μM) were added (1:9 v/v) and the absorbance spectrum 500 to 900 nm recorded after 30 sec.

Our source for the antioxidant activity values is patent US20220000762A1, “COMPOSITIONS FOR TREATING OXIDATIVE STRESS-ASSOCIATED SKIN DISEASES AND SKIN AGEING AND DIAGNOSIS OF OXIDATIVE STRESS-ASSOCIATED SKIN DISEASES” (priority 2019, published 2022).

As to “RTLSYCAYPHYVN (Cutibacterium acnes) [RoxP-Peptide 2]”, the antioxidant activity entry was “display antioxidant activity”.

With “VRADGYQESMVTRVLDDK (Cutibacterium acnes) [RoxP-Peptide 1]”, the antioxidant activity result is “display antioxidant activity”.
